This is an account of results in patent publication US9481676B2, “Azepino[4,5-B]indoles and methods of use” (Medivation Technologies, Inc., priority 2008, dated 2016).

Experiment [1] addresses T1, human recombinant histamine H1 receptor (Homo sapiens, UniProt P35367).
T1 construct: expressed in transfected cells; host or cells: CHO cells
The experiment is described as follows: Histamine H1 radioligand binding ([3H]Pyrilamine). The following applies: compound at 1 μM; read-out: Histamine Binding (1 μM) H1, percent inhibition of specific binding. In a few lines: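 Membranes from CHO cells expressing the receptor were incubated with compound and 1.2 nM [3H]pyrilamine for 180 min at 25 °C in 50 mM Tris-HCl pH 7.4 with MgCl2, NaCl and sucrose; 1 μM pyrilamine defined non-specific binding. Filter-bound radioactivity was counted.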

The target of experiment [2] is T2, human recombinant histamine H2 receptor (Homo sapiens, UniProt P25021).
T2 construct: expressed in transfected cells; host or cells: CHO-K1 cells
The experiment is described as follows: Histamine H2 radioligand binding ([125I]Aminopotentidine). The following applies: compound at 1 μM; read-out: Histamine Binding (1 μM) H2, percent inhibition of specific binding. A digest of the protocol:
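Membranes from CHO-K1 cells expressing recombinant human H2 receptor, in 50 mM phosphate buffer pH 7.4, incubated with 0.1 nM [125I]aminopotentidine for 120 min at 25 °C; nonspecific binding defined with 3 μM tiotidine.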

In experiment [3] the target is T3, human recombinant adrenergic α1D receptor (Homo sapiens, UniProt P25100).
T3 construct: expressed in transfected cells; host or cells: HEK-293 cells
T3 sequence (P25100 1-572): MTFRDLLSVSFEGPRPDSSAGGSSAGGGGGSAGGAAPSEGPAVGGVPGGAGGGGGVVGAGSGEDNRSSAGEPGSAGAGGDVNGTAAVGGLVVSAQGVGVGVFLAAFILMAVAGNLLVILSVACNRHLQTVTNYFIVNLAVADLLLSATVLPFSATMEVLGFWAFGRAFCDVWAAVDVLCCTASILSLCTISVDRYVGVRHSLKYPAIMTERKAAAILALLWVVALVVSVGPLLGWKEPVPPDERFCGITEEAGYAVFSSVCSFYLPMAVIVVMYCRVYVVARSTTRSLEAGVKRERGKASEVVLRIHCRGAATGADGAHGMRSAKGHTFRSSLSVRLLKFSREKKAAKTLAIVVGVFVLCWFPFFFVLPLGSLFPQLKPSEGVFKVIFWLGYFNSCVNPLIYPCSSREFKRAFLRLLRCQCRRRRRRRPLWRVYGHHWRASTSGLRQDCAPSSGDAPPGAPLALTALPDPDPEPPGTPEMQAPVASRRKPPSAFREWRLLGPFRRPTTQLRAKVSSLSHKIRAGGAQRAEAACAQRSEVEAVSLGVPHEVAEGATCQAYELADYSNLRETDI
The experiment is described as follows: Adrenergic alpha1D radioligand binding ([3H]Prozosin). Conditions: compound at 1 μM; read-out: Adrenergic (1 μM) α1D, percent inhibition of specific binding. A digest of the protocol: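 Membranes from HEK-293 cells expressing the human receptor in 50 mM Tris-HCl pH 7.4 were incubated 60 min at 25 °C with 0.6 nM [3H]prazosin. Nonspecific binding was defined with 10 μM phentolamine, and bound ligand measured by filtration.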

Experiment [4] deals with T4, human recombinant adrenergic α2A receptor (Homo sapiens, UniProt P08913).
T4 construct: expressed in transfected cells; host or cells: insect Sf9 cells
T4 sequence (P08913 1-465): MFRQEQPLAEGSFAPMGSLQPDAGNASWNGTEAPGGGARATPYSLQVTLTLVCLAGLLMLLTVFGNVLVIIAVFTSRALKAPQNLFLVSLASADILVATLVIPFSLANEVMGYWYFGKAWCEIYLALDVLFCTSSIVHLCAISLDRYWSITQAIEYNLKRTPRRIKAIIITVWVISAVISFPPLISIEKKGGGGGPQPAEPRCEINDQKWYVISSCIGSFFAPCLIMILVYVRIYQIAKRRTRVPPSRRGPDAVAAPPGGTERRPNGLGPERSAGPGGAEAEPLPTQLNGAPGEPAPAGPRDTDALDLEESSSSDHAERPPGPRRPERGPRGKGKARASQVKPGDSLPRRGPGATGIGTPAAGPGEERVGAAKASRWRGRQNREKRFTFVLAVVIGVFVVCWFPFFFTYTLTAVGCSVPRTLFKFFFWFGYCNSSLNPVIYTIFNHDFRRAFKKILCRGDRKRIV
The experiment is described as follows: Adrenergic alpha2A radioligand binding ([3H]MK-912). The following applies: compound at 1 μM; read-out: Adrenergic (1 μM) α2A, percent inhibition of specific binding. In a few lines: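 Membranes of Sf9 cells expressing human recombinant α2A receptor were incubated with compound and 1 nM [3H]MK-912 for 60 min at 25 °C in 50 mM Tris-HCl pH 7.4, 12.5 mM MgCl2, 2 mM EDTA. Nonspecific binding: 10 μM WB-4101.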

T2 sequence (P25021 whole entry): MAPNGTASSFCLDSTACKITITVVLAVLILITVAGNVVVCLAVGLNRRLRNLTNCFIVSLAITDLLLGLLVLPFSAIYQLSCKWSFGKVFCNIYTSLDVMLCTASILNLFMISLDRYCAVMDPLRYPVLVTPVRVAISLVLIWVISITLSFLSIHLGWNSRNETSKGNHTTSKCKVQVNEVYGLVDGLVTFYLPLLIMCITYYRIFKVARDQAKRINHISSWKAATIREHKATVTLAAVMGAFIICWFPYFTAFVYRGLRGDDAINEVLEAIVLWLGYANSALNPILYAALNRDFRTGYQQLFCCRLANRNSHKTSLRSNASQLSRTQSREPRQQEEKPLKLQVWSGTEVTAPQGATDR
T1 sequence (P35367 whole entry): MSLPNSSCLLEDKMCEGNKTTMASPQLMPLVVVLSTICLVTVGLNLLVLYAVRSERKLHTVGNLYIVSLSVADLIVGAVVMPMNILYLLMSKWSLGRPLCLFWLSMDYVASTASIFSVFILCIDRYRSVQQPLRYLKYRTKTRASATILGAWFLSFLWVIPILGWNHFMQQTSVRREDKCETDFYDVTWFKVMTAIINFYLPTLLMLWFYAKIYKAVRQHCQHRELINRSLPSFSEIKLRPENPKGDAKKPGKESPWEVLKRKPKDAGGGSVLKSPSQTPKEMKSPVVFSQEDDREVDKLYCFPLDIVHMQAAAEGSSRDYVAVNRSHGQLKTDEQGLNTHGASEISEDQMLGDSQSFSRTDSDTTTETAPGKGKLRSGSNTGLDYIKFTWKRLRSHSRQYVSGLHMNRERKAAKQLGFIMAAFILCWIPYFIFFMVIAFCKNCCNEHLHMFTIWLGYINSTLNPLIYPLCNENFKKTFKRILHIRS

One may read the inhibition as how much of the control response was suppressed. For `COc1ccc(/C=C/n2c3c(c4cc(Cl)ccc42)CCN(C)CC3)cc1F` [Compound No. 158, (E)-6-(3-fluoro-4-methoxystyryl)-9-chloro-1,2,3,4,5,6-hexahydro-3-methylazepino[4,5-b]indole], the inhibition at 1 µM turned out to be 98% in experiment [1], 89% in experiment [2], 98% in experiment [3] and 99% in experiment [4].
